# Source: ChEMBL document CHEMBL4680194, “Synthesis and biological evaluation of 1,2,4-triazole derivatives as potential neuroprotectant against ischemic brain injury” (Eur J Med Chem, 2020)
# pIC50: −log10 of the molar value. The source made the active and inactive calls. No cut-off for these calls is given here.
# Assays:
# PC-12 [1] = experiment: Antioxidant activity in rat PC-12 cells assessed as reduction in SNP-induced ROS level incubated for 1 hr followed by SNP stimulation and measured after 24 hrs by DCFH-DA staining based fluorescence microscopy; assay type: functional, cell-based; details: dose 2.5-10 µM, time 25.0 hrs
# PC-12 [2] = experiment: Inhibition of H2O2-induced apoptosis in rat PC-12 cells assessed as effect on cell morphology incubated for 1 hr followed by H2O2 stimulation and measured after 5 hrs by Hoechst 33258 staining based fluorescence microscopy; assay type: functional; details: dose 2.5-10 µM, time 6.0 hrs
# PC-12 [3] = experiment: Cytoprotective activity against SNP-induced cell death in rat PC-12 cells assessed as increase in cell viability incubated for 1 hr followed by SNP stimulation and measured after 24 hrs by LDH assay; assay type: functional, cell-based; details: time 25.0 hrs
# [4] = Metal chelating activity of the compound assessed as Fe2+-compound complex formation incubated for 10 mins in presence of ferrozine by UV-visible spectrophotometry; details: read-out: IC50
# Rattus norvegicus [5] = experiment: Neuroprotective activity in Sprague-Dawley rat model of middle cerebral artery occlusion-induced ischemic injury assessed as infarction volume at 3 mg/kg, ip administered TID and measured after 6 hrs by TTC staining based assay (reference value: 28.67 +/- 2.90 %); assay type: functional
# Rattus norvegicus [6] = experiment: Neuroprotective activity in Sprague-Dawley rat model of middle cerebral artery occlusion-induced ischemic injury assessed as infarction volume at 10 mg/kg, ip administered TID and measured after 6 hrs by TTC staining based assay (reference value: 28.67 +/- 2.90 %); assay type: functional
# Rattus norvegicus [7] = experiment: Neuroprotective activity in Sprague-Dawley rat model of middle cerebral artery occlusion-induced ischemic injury assessed as improvement in behavioral changes at 3 to 30 mg/kg, ip administered TID and measured after 24 hrs; assay type: functional, organism-based; details: dose 3-30 mg/kg
# Rattus norvegicus [8] = experiment: Neuroprotective activity in Sprague-Dawley rat model of middle cerebral artery occlusion-induced ischemic injury assessed as increase in MDA level at 3 to 30 mg/kg, ip administered TID and measured after 24 hrs by ELISA; assay type: functional, organism-based; details: dose 3-30 mg/kg
# [9] = Toxicity in […] assessed as body weight at 400 mg/kg, ip measured on day 7 (reference value: 24.4 to 28.4 g); assay type: organism-based; details: in vivo, 168 h, time 7 day
# [10] = target: T1, Nuclear factor erythroid 2-related factor 2 (Rattus norvegicus) (UniProt O54968); experiment: Induction of Nrf2 nuclear translocation in rat PC-12 cells assessed as H2O2-induced GSH level at 2.5 uM incubated for 1 hr followed by H2O2 stimulation and measured after 5 hrs (reference value: 65.52 +/- 1.44 nM/mg); assay type: cell-based; details: time 6.0 hrs
# T1 sequence (whole entry): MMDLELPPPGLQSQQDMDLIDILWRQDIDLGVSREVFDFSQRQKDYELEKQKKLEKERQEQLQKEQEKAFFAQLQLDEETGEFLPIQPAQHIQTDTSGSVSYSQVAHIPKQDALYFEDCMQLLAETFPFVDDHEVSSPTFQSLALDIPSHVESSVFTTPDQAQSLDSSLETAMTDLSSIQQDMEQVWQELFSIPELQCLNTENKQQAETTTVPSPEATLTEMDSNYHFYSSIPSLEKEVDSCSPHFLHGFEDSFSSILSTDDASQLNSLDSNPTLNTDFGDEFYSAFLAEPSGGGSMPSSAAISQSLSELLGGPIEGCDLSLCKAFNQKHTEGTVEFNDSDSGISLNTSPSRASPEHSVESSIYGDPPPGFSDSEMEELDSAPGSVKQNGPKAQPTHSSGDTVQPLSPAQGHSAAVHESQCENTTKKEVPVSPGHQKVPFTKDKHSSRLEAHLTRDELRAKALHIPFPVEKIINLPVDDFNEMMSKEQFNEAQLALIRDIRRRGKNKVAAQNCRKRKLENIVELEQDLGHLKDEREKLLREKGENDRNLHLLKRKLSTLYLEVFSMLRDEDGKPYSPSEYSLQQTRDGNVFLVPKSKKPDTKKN
# [11] = target: T1, Nuclear factor erythroid 2-related factor 2 (Rattus norvegicus); experiment: Induction of Nrf2 nuclear translocation in rat PC-12 cells assessed as H2O2-induced GSH-px level at 2.5 uM incubated for 1 hr followed by H2O2 stimulation and measured after 5 hrs (reference value: 45.92 +/- 3.64 mU/mg); assay type: cell-based; details: time 6.0 hrs
# [12] = target: T1, Nuclear factor erythroid 2-related factor 2 (Rattus norvegicus); experiment: Induction of Nrf2 nuclear translocation in rat PC-12 cells assessed as H2O2-induced GSH-px level at 5 uM incubated for 1 hr followed by H2O2 stimulation and measured after 5 hrs (reference value: 45.92 +/- 3.64 mU/mg); assay type: cell-based; details: time 6.0 hrs
# [13] = target: T1, Nuclear factor erythroid 2-related factor 2 (Rattus norvegicus); experiment: Induction of Nrf2 nuclear translocation in rat PC-12 cells assessed as H2O2-induced SOD level at 2.5 uM incubated for 1 hr followed by H2O2 stimulation and measured after 5 hrs (reference value: 29.69 +/- 1.65 U/mg); assay type: cell-based; details: time 6.0 hrs
# [14] = target: T1, Nuclear factor erythroid 2-related factor 2 (Rattus norvegicus); experiment: Induction of Nrf2 nuclear translocation in rat PC-12 cells assessed as H2O2-induced SOD level at 10 uM incubated for 1 hr followed by H2O2 stimulation and measured after 5 hrs (reference value: 29.69 +/- 1.65 U/mg); assay type: cell-based; details: time 6.0 hrs
# [15] = target: T1, Nuclear factor erythroid 2-related factor 2 (Rattus norvegicus); experiment: Induction of Nrf2 nuclear translocation in rat PC-12 cells assessed as SNP-induced GSH level at 10 uM incubated for 1 hr followed by SNP stimulation and measured after 24 hrs (reference value: 75.78 +/- 1.74 nM/mg); assay type: cell-based; details: time 25.0 hrs
# [16] = target: T1, Nuclear factor erythroid 2-related factor 2 (Rattus norvegicus); experiment: Induction of Nrf2 nuclear translocation in rat PC-12 cells assessed as SNP-induced GSH level incubated for 1 hr followed by SNP stimulation and measured after 24 hrs; assay type: cell-based; details: dose 2.5-10 µM, time 25.0 hrs
# PC-12 [17] = experiment: Reversal of LY294002-induced Nrf2 inhibition in rat PC-12 cells at 1.25 to 5 uM incubated for 1 hr followed by LY294002 stimulation and measured after 24 hrs by Western blot analysis; assay type: functional, cell-based; details: dose 1.25-5 µM, time 25.0 hrs
# PC-12 [18] = experiment: Cytoprotective activity against H2O2-induced cell death in rat PC12 cells assessed as increase in cell viability at 10 uM incubated for 1 hr followed by H2O2 stimulation and measured after 5 hrs in presence of LY294002 by MTT assay; assay type: functional, cell-based; details: time 6.0 hrs
# PC-12 [19] = experiment: Cytoprotective activity against SNP-induced cell death in rat PC12 cells assessed as increase in cell viability at 10 uM incubated for 1 hr followed by SNP stimulation and measured after 24 hrs in presence of LY294002 by MTT assay; assay type: functional, cell-based; details: time 25.0 hrs
# [20] = Half life in Sprague-Dawley rat at 20 mg/kg, po measured upto 24 hrs by LC-MS/MS analysis; assay type: ADME, organism-based; details: in vivo
# [21] = Tmax in Sprague-Dawley rat at 20 mg/kg, po measured upto 24 hrs by LC-MS/MS analysis; assay type: ADME, organism-based; details: in vivo
# [22] = AUC (0 to infinity) in Sprague-Dawley rat at 20 mg/kg, po measured upto 24 hrs by LC-MS/MS analysis; assay type: ADME, organism-based; set-up: route oral, dose 20 mg/kg, time <=24; details: in vivo
# [23] = Half life in Sprague-Dawley rat at 2 mg/kg, iv measured upto 24 hrs by LC-MS/MS analysis; assay type: ADME, organism-based; details: in vivo
# [24] = AUC (0 to infinity) in Sprague-Dawley rat at 2 mg/kg, iv measured upto 24 hrs by LC-MS/MS analysis; assay type: ADME, organism-based; set-up: route intravenous, dose 2 mg/kg, time <=24; details: in vivo
compound,measurement,setting,value
COc1ccc(-c2nc(-c3ccccc3O)n(-c3ccc(S(N)(=O)=O)cc3)n2)c(O)c1,inhibition,PC-12 [1],Dose-dependent effect
same,inhibition,PC-12 [2],Dose-dependent effect
same,Activity,PC-12 [3],Dose-dependent effect
same,pIC50,[4],4.44
same,Activity,Rattus norvegicus [5],20.52%
same,Activity,Rattus norvegicus [6],12.59%
same,Activity,Rattus norvegicus [7],Active
same,Activity,Rattus norvegicus [8],Active
same,Activity,[9],25.7 g
same,Activity,[10],70.4 nM/mg
same,Activity,[11],51 mU/mg
same,Activity,[12],65.2 mU/mg
same,Activity,[13],36.3 U/mg
same,Activity,[14],41.2 U/mg
same,Activity,[15],89.2 nM/mg
same,Activity,[16],Dose-dependent effect
same,Activity,PC-12 [17],Active
same,Activity,PC-12 [18],inactive
same,Activity,PC-12 [19],inactive
same,half-life,[20],256 min
same,Tmax,[21],2 h
same,AUC(0-inf),[22],14200 ng·h/mL
same,half-life,[23],307 min
same,AUC(0-inf),[24],2330 ng·h/mL
